Measurements: a melting point compilation (Tetko et al.; mined from patent text by program, amines drawn as free bases though some values may be those of a salt)

SMILES	melting point
O=C1CCC(N2C(=O)c3ccc(CNCc4cc5ccccc5o4)cc3C2=O)C(=O)N1 (stereo unspecified)	133 to 135 °C
O=C(Nc1ccc2[nH]ccc2c1)c1ccc(F)cc1	205 to 207 °C
CCSc1nc(O)ns1	129 °C
Cc1cccc(NC(=O)NC2N=C(CN3CC4CCC(CC4)C3)c3cccc(C)c3N(C)C2=O)c1 (stereo unspecified)	146 to 149 °C
Cc1ccc(C)c(OCCCC(C)(C)C(=O)Nc2cccc(C(=O)O)c2)c1	161 °C
O=C(NC1CCCc2ccccc21)c1ccc2n1Cc1ccccc1N(C(=O)CSc1ccc(Br)cc1)C2 (stereo unspecified)	163 to 165 °C
NC(=O)C(Sc1nc2cc(Cl)ccc2s1)c1ccccc1 (stereo unspecified)	181 to 183 °C
CS(=O)(=O)c1nnc(S(=O)(=O)Cc2ccc(Cl)cc2)s1	159 to 160 °C
CN(C)Cc1nc(-c2ccccc2)cn1Cc1ccccc1	78 to 80 °C
CCCc1nnc2n1-c1ccccc1CS2	114 °C
CCC(C)(C)Cc1ccc(C(=O)O)c(=O)[nH]1	170 to 172 °C
COC(=O)C=Cc1ccc(C(=O)NC[C@H](NC(=O)OCc2ccccc2)C(=O)OC(C)(C)C)s1	98 °C
COc1ccc(-c2cn3ccc(C)cc3n2)cc1	157 to 160 °C
COc1cc(COc2nn(-c3ccccc3)cc2-c2cnco2)ccc1OCc1nc(-c2ccco2)oc1C	153 to 154 °C
CCc1cc(O)n2ncc(CC)c2n1	> 310 °C
Cc1ccc(C2=CCN(CCCn3c(=O)[nH]c4cccc(C)c4c3=O)CC2)cc1	165 to 170 °C
O=C(O)CCCCCNC(=O)OCc1ccccc1	54 to 55.5 °C
O=C1Nc2ccc(F)cc2C(C#Cc2ccccc2)(C(F)(F)F)N1 (racemic)	107 °C
CCOC(=O)c1cn(-c2nccnn2)cn1	193 to 194 °C
CCOC(=O)C1=C(C)Nc2ccnc(OC(C)C)c2C1c1cccc([N+](=O)[O-])c1 (stereo unspecified)	180 to 182 °C

SMILES	melting point
O=S(=O)(c1ccc(Cl)cc1)C(c1cc(F)ccc1F)C(O)CCCCO (stereo unspecified)	105 to 107 °C
CC(C)(C)OC(=O)N1[C@@H](Cc2ccc(O[Si](C)(C)C(C)(C)C)c(C(C)(C)C)c2)C(=O)O[C@H](c2ccccc2)[C@@H]1c1ccccc1	75 to 83 °C
CN(C)CCCCNc1ncc2c(n1)-c1ccccc1C(c1cccc(Br)c1)C2 (stereo unspecified)	115 to 117 °C
Cc1c(C(=O)Cl)c(C)c2cccc(C)c2c1C	216 °C
Cc1nc(C(=O)c2[nH]c3ccc(Cl)cc3c2CC(=O)O)c[nH]1	237 to 238 °C
CCN1c2ncc(CCc3ccccc3)cc2C(=O)Nc2c(C)ccnc21	174 to 175 °C
COc1ccc(C(=O)[C@H]2CC=CC[C@H]2C(=O)O)cc1Br (relative stereo)	201 to 204 °C
CCc1nc(N)nc(N)c1CCCc1cc(Cl)c(Cl)cc1Cl	168 to 182 °C
OCc1ccc(-c2ccccc2-c2nnn(C(c3ccccc3)(c3ccccc3)c3ccccc3)n2)cc1	168 to 170 °C
Nc1ccc(C(=O)c2ccccc2)c(Br)c1	157 to 160 °C
Nc1cccc(F)c1O	115 °C
COc1cc(O)c(C)c(C(=O)O)c1Br	79 to 80 °C
C=CCN1CCc2nc(NCC)nc(-c3ccc(Cl)cc3)c2C1	104 to 106 °C
CC(C)CNCc1cccc(OCCCNc2nc(N)nn2C)c1	89 to 90 °C
CC(=O)OCc1[nH]c2c(c1C)C(=O)C(N1CC1)=C(C)C2=O	210 to 212 °C
O=c1ccc(N2CCC(CCCO)CC2)n[nH]1	174 °C
Cc1ccccc1Sc1cccc(C=O)c1O	42 to 43 °C
Cc1oncc1C(=O)N1CCSCC1	64.5 to 65 °C
O=c1c(CO)cc(-c2ccc3c(c2)CCO3)nn1CC=Cc1ccc(Cl)cc1	131 to 141 °C
COc1nc2ccccc2nc1NC(=O)N1CCN(c2cc(C)cc(C)c2)CC1	155 to 157 °C

Other lines, results leading:

melting point	SMILES
201 to 203 °C	CON(CCCCn1c(C)nc2c(N)nc3ccccc3c21)S(C)(=O)=O
320 to 323 °C	Cn1nc(-c2cnc3[nH]cc(C(=O)NC4CCCOC4)c3n2)c2ccc(Cl)cc21 (stereo unspecified)
128 to 131 °C	CN(N)c1nc2ccccc2o1
132 °C	C(=C\c1ccc2c(c1)COC(N[C@@H]1CCc3ccccc31)=N2)/c1cccnc1
173 to 175 °C	NS(=O)(=O)c1ccc(-c2cnn(CC(F)=C(F)F)c(=O)c2-c2ccc(F)cc2)cc1
77 to 78 °C	COc1ccc(CC(C)(C)NC(=O)N(C)O)cc1OC
143 °C	CN(C)CCOc1cccc(CC(Nc2cc(-c3ccc(OCc4ccccc4)cc3)ncn2)C(=O)O)c1 (stereo unspecified)
75 to 77 °C	COc1ccc2c(c1)C(CC#N)CN(C(=O)OC(C)(C)C)C2 (stereo unspecified)
99 to 101 °C	COCOc1c2c(cc3ccccc13)N(C(=O)OC(C)(C)C)CC2CCl (stereo unspecified)
109 to 112 °C	O=c1occ(CSc2ccc([N+](=O)[O-])cc2)o1
204 to 206 °C	CCCCCCCNC(=O)Nc1ccc(N(C)C)cc1C(=O)NC1CCN(C(c2ccccc2)c2ccccc2)CC1
144 to 145 °C	CN(C)S(=O)(=O)c1cc(-c2csc(=Nc3ccc(F)cc3)n2C)ccc1Cl
291 to 292 °C	Cn1ncc(/C=C/C(=O)Nc2ccc(C(=O)O)cc2)c1-c1ccc(F)cc1
32 to 33 °C	CC(C)=CC(=O)c1sccc1O
156 to 157 °C	CC(=O)NC(C)(C)Cc1ccc(N(C)C)cc1
152 °C	COc1ccc(Cl)cc1C(=O)Nc1ccc(CC(=O)O)cc1
94.4 to 97.3 °C	CCCCc1nc(C)c(CC(=S)N2CCCC2)c(=O)n1Cc1ccc(-c2ccccc2-c2nnn[nH]2)cc1
83 °C	C[Si](C)(C)c1cn(Cc2ccc(C#N)cc2)nn1
145 to 146 °C	O=C(O)[C@H](Cc1ccc(C(F)(F)F)cc1)[C@@H](O)c1ccc(Cl)nc1 (racemic)
143 to 145 °C	OCc1cccc(C=CC2N=Cc3cc(Cl)ccc3S2)c1 (stereo unspecified)
248 °C	COc1c(N2CC(C)C(NC3CC3)C(C)C2)c(F)c(N)c2c(=O)c(C(=O)O)cn(C3CC3)c12 (stereo unspecified)

melting point	SMILES
155 to 158 °C	Cc1cc(C)c(Nc2nc(C)ccc2S(=O)(=O)c2ccc(OCc3cccc(C#N)c3)cc2)c(C)c1
52.8 °C	C=CCc1cc(OCC(=O)OCC)ccc1O
130 °C	Oc1ccc(CN2CCOCC2)c2cccnc12
184 to 185 °C	CCN(c1ccc2c(c1)OCO2)c1nc(=O)c2cccnc2s1
130 °C	Cc1ccc(S(=O)(=O)N(c2ccc(Cl)cc2C#N)C(C)C)cc1
48 to 49.5 °C	O=C(c1cccnc1)N1CC2CCC(C1)O2
166 to 167 °C	Cc1nnc(-c2ccc3scc(-c4ccc(S(C)=O)cc4)c3c2)o1 (stereo unspecified)
138 to 139 °C	CCOC(OCC)c1ccccc1CN(CCn1ccc2oc(C)cc2c1=O)Cc1ccc2c(c1)N(C)C(=O)C(C)(C)C(=O)N2CC
192 to 194 °C	CCOc1cc(OCCCc2cn(-c3ccc(C(F)(F)F)cn3)nc2O)ccc1CCC(=O)O
284 to 287 °C	O=c1[nH]c2ncc(-c3ccc(-n4ccnc4)cc3)nc2n1CC1CCCCC1
83 to 84 °C	ONc1ccc(Cl)cc1
180 to 182 °C	OCCc1c2ccccc2c(Br)c2ccccc12
79 to 80 °C	CC(=O)C(=Cc1ccc2c(c1)OCO2)C(C)=O
297 °C	COC(=O)c1cc(=O)c2cc3[nH]c(=O)oc3cc2[nH]1
63 °C	CCCC12CCC(c3ccc(C#N)c(F)c3)(CC1)CC2
193 to 194 °C	CC(C)n1nc(-c2cc(C(=O)NCc3ccccn3)cnc2-c2ccccc2)ccc1=O
110 to 112 °C	CNS(=O)(=O)Cc1ccc(NN=CCSc2ccccc2)cc1
181 to 182 °C	Cc1ccc(-c2c(Cl)ncn2-c2ccc(S(C)(=O)=O)cc2)cc1Cl
158 to 160 °C	CCc1cc(Nc2ccc([N+](=O)[O-])cc2)n2nccc2n1
136 to 137 °C	CC(C)Oc1ccc(C(=O)c2ccc([N+](=O)[O-])cc2)cc1
181 to 182 °C	COC(=O)c1cc(O)ccc1NC(=O)c1ccc(Cl)cc1Cl

melting point	SMILES
67 °C	CCOC(=O)C=C(C)Nc1cc(C)ccc1C
158 to 160 °C	CC(C)c1ccc2ccc(N)nc2n1
83 to 84 °C	CC(C)(C)OC(=O)C1CCCN1C(=O)NN (stereo unspecified)
205 to 215 °C	COc1cc2c(cc1C(F)(F)F)N(C(=O)Nc1ccc(-c3ccccn3)s1)CC2
186 to 189 °C	O=C(O)c1cccnc1C1=NC(=O)C2(CCCCC2)N1
118 to 120 °C	CC1CCCCN1CCCNC(=O)c1ccccc1C(c1ccc(O)cc1)c1ccc(O)cc1 (stereo unspecified)
294 to 300 °C	CC1(N)CN(c2c(F)cc3c(=O)c4c(=O)[nH]sc4n(C4CC4)c3c2F)C1
260 to 261 °C	N#Cc1cccc(-n2cc(-c3ccccn3)cn2)n1
86 to 87 °C	COC1(c2ccc(Sc3ccc(C(=O)c4ccc(C(F)(F)F)cc4)cc3)s2)CCOCC1
127 to 128 °C	COc1ccc(Cc2ccc(NC3=NCCN3)cc2OC)cc1
190 °C	CC1CC(=O)Nc2ccc(Br)cc21 (stereo unspecified)
124 to 126 °C	CNCCC(=O)N1c2ccccc2N2CCc3cccc(c32)C1C (stereo unspecified)
114 to 116 °C	CCC(CC)(CC(=O)Nc1cccc(/C=C/c2cccc(COCCCCc3ccc(C)cc3)n2)c1)C(=O)O
91 to 92 °C	CCOC(=O)C(C)(C(=O)OCC)c1ccc(N)c(C(C(=O)OC)C(=O)OC)c1
222 to 223 °C	CC(C)(C)c1ccc(C(=O)Nc2cn3nc(NCc4ccncc4)ccc3n2)cc1
126 to 128 °C	COC(=O)c1sc2ccc(OCc3cccnc3)cc2c1Cl
138 to 139 °C	C=CCN(C(=O)OC(C)(C)C)c1cc(OC)c(-c2ccc(C[C@H](NC(=O)c3c(Cl)cccc3Cl)C(=O)O)cc2)c(OC)c1
110 to 112 °C	CNc1cnc(N(Cc2ccccc2)C(=O)OCc2ccccc2)cc1-c1ccccc1C
222 to 228 °C	COc1ccc(-c2ccc3c(c2)C=C(C(=O)Nc2ccc(CN(C)C4CCC5(CC4)OCCO5)cc2)CCS3(=O)=O)cc1
